Assay results: patent US9375459B2, “Cyclic peptides with an anti-neoplasic and anti-angiogenic activity” (priority 2011, dated 2016)
Entries after “also recorded” stand apart in the source; their conditions may differ. Where two headings read alike, the source gives them in different places. Where a SMILES comes first, the peptide text is derived from it. Bridges are numbered along the chain shown (N, C = ends).

How the values were obtained:
[1] = system: human tumor cell lines (A549, A375, PC-3, U87)
[2] = system: TC-1 tumor; experiment: TC-1 subcutaneous tumor model in C57BL/6 mice; format: in vivo; conditions: 80 μM, intratumoral route
Experimental: Six-to-eight weeks-old, C57BL/6 female mice of 22 g of weight were supplied by the National Center for Laboratory Animal Production (CENPALAB, Havana, Cuba) and housed under pathogen-free conditions at the Bioterium of the Center for Genetic Engineering and Biotechnology (CIGB). Experiments were carried out in agreement with regulations for proper handling and care of laboratory animals. Tumor volume was measured on each case (estimated by the formula: volume=a^2×(b/2), where a is the width and b is the length of the tumor) and animal survival was evaluated.
Survival was compared between groups by the Logrank test. The statistic parameters were obtained with the aid of the GraphPad Prism 4.0 software (GraphPad Software, San Diego, Calif., USA).
C57BL/6 mice were injected in the right flank by subcutaneous route (s.c.) with 50 000 TC-1 cells. When tumors were detectable, mice were randomized into treatment groups to evaluate the treatment with the peptides subject of study, to evaluate them by different administration routes. Tumor-bearing animals received 6 administrations in alternate days, with 80 μM of the subject peptide, solely received the vehicle as control. Five mice were used for each group. Animals were housed under pathogen-free conditions, and procedures were conducted in agreement with good practices for laboratory animal handling and care.

[3] = system: primary fibroblasts
[4] = system: human colon cancer Ls174T cell line implanted in NIH athymic mice; experiment: Ls174T colon cancer tumor model in athymic mice; format: in vivo; conditions: FIG. 19B
Experimental: The Ls174T colon cancer tumor model in athymic mice was used to evaluate the potential effect of the linear Gly255-Ser274 segment (peptide N06P87), compared to the CIGB370r polypeptide, on human tumor models. Human tumor cells were administered by subcutaneous route, and the molecules of interest or the vehicle were administered by intratumor route (100 μL). After 13 days, when tumors were implanted and palpable, administration schedules started for the molecules of interest (FIG. 8A). The peptide N06P87 was administered in down-scaled doses: two administrations of 600 μM each every 48 h, followed by 4 administrations of 330 μM each every 48 h, and lastly 4 administrations of 90 μM each every 72 h. The CIGB370r peptide was administered weekly for 4 weeks.
The effects of the linear segment Gly255-Ser274 (peptide N06P87) and two other model cyclic peptides of the present invention were compared to the effect of the CIGB370r polypeptide in the Ls174T human colon cancer model in athymic NIH mice, with the dose and schedule shown in FIG. 19. After 13 days, once the tumors were implanted and palpable, biomolecules began to be administered (FIG. 19 A). The peptides were administered in down-scaled doses: 2 administrations of 600 μM every 48 h, followed by 4 administrations of 330 μM each every 48 h, and 4 final 90 μM administrations every 72 h. […]

[5] = system: M14 (melanoma); experiment: SRB cytotoxicity on M14 melanoma cells; format: cell-based; conditions: M14 human melanoma cells
Experimental: (§1) Negative control cells were cultured on a volume of vehicle equal to that of the experimental samples. An “x-y” curve (dose-response) was established with the percent of surviving cells, compared in respect to the negative control cells, and the following parameters were estimated: 50% growth inhibition (GI50); Total growth inhibition (TGI); and the lethal concentration 50 (LC50), that is the concentration causing the 50% of cell death (Boyd M R, Paull K D, and Rubinstein L R (1992) “Data display and analysis strategies for the NCI Disease Oriented In-Vitro Antitumor Drug Screen, in Cytotoxic Anticancer Drugs: Models and Concept for Drug Discovery and Development” (Baleriote F A, Corbett T H and Baker L H eds) pp 11-34, Kluwer Academia Publishers, Boston).
(§2) Were considered as cytotoxic peptides all those peptides being able of inhibiting 50% of the cellular proliferation, in a dose-dependent manner, and showing GI50 values below 100 μM, at least in one of the cell lines studied. The human tumor cell lines used were: HEp-2 (larynx carcinoma), A549 (lung epithelial adenocarcinoma), M14 (melanoma), Colo 205 (colon adenocarcinoma), Ls174T (colon adenocarcinoma), LnCAP (prostate carcinoma), PC-3 (prostate carcinoma) and H 125 (non-small cell lung adenocarcinoma). Represented are primary sequences for the designed peptides, the code used for its generation and their respective cytotoxic capacity on human tumor cells.
The inability of peptide N06P89 (cyclized by two cysteins located at both N- and C-termini) to inhibit cellular proliferation in M14 human melanoma tumor cells is shown in FIG. 7. […] At the same FIG. 7, it is also shown the need for blocking the C-terminus (for example, an amide group or other modification) to achieve the cytotoxic capacity expected for the peptide region of interest.

[6] = system: human tumor cells; experiment: Cytotoxic activity screening of peptide library on human tumor cell lines, SRB method; format: cell-based; conditions: SRB method; cytotoxic = dose-dependent 50% inhibition of proliferation, GI50 below 100 μM in at least one cell line
Experimental: as §1, §2

[7] = peptide combined with prodigiosin

Structure (SMILES) | GI50 values [1, 7] | survival [2] | Cytotoxic activity in vitro [6] | other results
CC(C)[C@H](NC(=O)[C@@H](NC(=O)[C@H](CC(=O)O)NC(=O)CN)[C@@H](C)O)C(=O)N[C@H]1CSSC[C@@H](C(=O)N[C@@H](CO)C(=O)N[C@H](C(=O)N[C@H](C(=O)N[C@@H](CO)C(N)=O)[C@@H](C)O)[C@@H](C)O)NC(=O)[C@H](Cc2ccccc2)NC(=O)[C@H](CC(=O)O)NC(=O)[C@H](CCCNC(=N)N)NC(=O)CNC(=O)[C@H]([C@@H](C)O)NC(=O)[C@H](CC(N)=O)NC(=O)[C@H](CO)NC(=O)[C@H](CC(N)=O)NC(=O)[C@H](Cc2ccccc2)NC(=O)CNC1=O [Peptide J08P46s-s] (H-GDTVCGFNSNTGRDFCSTTS-NH2; disulfide 5-16) | nm range | intermediate survival block | – | effect on the cytotoxic activity of prodigiosin [1, 7]: enhanced; decrease of the cytotoxic activity of prodigiosin on primary fibroblasts [3, 7]: at least one order of magnitude
CC(C)C[C@@H]1NC(=O)[C@H](Cc2ccccc2)NC(=O)[C@H](CC(=O)O)NC(=O)[C@H](CCCNC(=N)N)NC(=O)CNC(=O)[C@H]([C@@H](C)O)NC(=O)[C@H](CC(N)=O)NC(=O)[C@@H](N)CSSC[C@@H](C(N)=O)NC1=O [Peptide A08P25s-s, CNTGRDFLC] (H-CNTGRDFLC-NH2; disulfide 1-9) | nm range | intermediate survival block | – | T/C values related to the mean tumor volume [4]: 35%; effect on the cytotoxic activity of prodigiosin [1]: enhanced; decrease of the cytotoxic activity of prodigiosin on primary fibroblasts [3]: at least one order of magnitude
CC(C)C[C@@H]1NC(=O)[C@H](Cc2ccccc2)NC(=O)[C@H](CC(=O)O)NC(=O)[C@H](CCCNC(=N)N)NC(=O)CNC(=O)[C@H]([C@@H](C)O)NC(=O)[C@H](CC(N)=O)NC(=O)[C@H](CO)NC(=O)[C@H](CC(N)=O)NC(=O)[C@H](Cc2ccccc2)NC(=O)CNC(=O)[C@H](Cc2ccc(O)cc2)NC(=O)[C@H](C(C)C)NC(=O)[C@H]([C@@H](C)O)NC(=O)[C@H](CC(=O)O)NC(=O)CNC(=O)[C@@H](N)CSSC[C@@H](C(N)=O)NC(=O)[C@H](CO)NC(=O)[C@H]([C@@H](C)O)NC(=O)[C@H]([C@@H](C)O)NC(=O)[C@H](CO)NC1=O [Peptide N06P89] (H-CGDTVYGFNSNTGRDFLSTTSC-NH2; disulfide 1-22) | – | – | – | cytotoxic activity / inhibition of cellular proliferation [5]: inability; also recorded: loss of peptide's biological activity
CC(C)C[C@@H]1NC(=O)[C@H](Cc2ccccc2)NC(=O)[C@H](CC(=O)O)NC(=O)[C@H](CCCNC(=N)N)NC(=O)CNC(=O)[C@H]([C@@H](C)O)NC(=O)[C@H](CC(N)=O)NC(=O)[C@@H](NC(=O)[C@H](CC(N)=O)NC(=O)[C@H](Cc2ccccc2)NC(=O)CNC(=O)[C@H](Cc2ccc(O)cc2)NC(=O)[C@@H](NC(=O)[C@@H](NC(=O)[C@H](CC(=O)O)NC(=O)CN)[C@@H](C)O)C(C)C)CSSC[C@@H](C(=O)N[C@H](C(=O)N[C@H](C(=O)N[C@@H](CO)C(N)=O)[C@@H](C)O)[C@@H](C)O)NC1=O [Peptide A08P28s-s] (H-GDTVYGFNCNTGRDFLCTTS-NH2; disulfide 9-17) | nm range | intermediate survival block | – | effect on the cytotoxic activity of prodigiosin [1, 7]: enhanced; decrease of the cytotoxic activity of prodigiosin on primary fibroblasts [3, 7]: at least one order of magnitude
CC[C@H](C)[C@H](NC(=O)[C@H](CC(N)=O)NC(=O)[C@@H](NC(=O)[C@H](CO)NC(=O)[C@H](CC(C)C)NC(=O)[C@H](CC(=O)O)NC(=O)[C@@H](NC(=O)[C@@H](NC(=O)[C@H](CC(N)=O)NC(=O)[C@H](CO)NC(=O)[C@H](CO)NC(=O)[C@H](C)NC(=O)[C@@H](N)CC(N)=O)C(C)C)[C@@H](C)O)C(C)C)C(=O)NCC(=O)NCC(=O)N[C@@H](Cc1c[nH]cn1)C(=O)N[C@@H](CCC(N)=O)C(=O)N[C@@H](C)C(=O)N1CCC[C@H]1C(=O)N[C@@H](CC(=O)O)C(N)=O [Peptide E02P04] (H-NASSNVTDLSVNIGGHQAPD-NH2) | – | – | + (Symbol + indicates the presence of cytotoxicity) | cytotoxic activity / inhibition of cellular proliferation [5]: showed activity; cytotoxic activity / inhibition of cellular proliferation ([5]; listed as E07P04): showed cytotoxic activity
CC[C@H](C)[C@H](NC(=O)[C@H](CCCNC(=N)N)NC(=O)[C@H](CCC(N)=O)NC(=O)[C@H](CC(N)=O)NC(=O)[C@H](C)NC(=O)[C@@H](NC(=O)[C@H](Cc1ccc(O)cc1)NC(=O)CNC(=O)[C@@H](N)CO)[C@@H](C)O)C(=O)N[C@@H](CC(N)=O)C(=O)N[C@@H](CC(C)C)C(=O)N[C@@H](CC(N)=O)C(=O)N[C@@H](CCC(=O)O)C(=O)N[C@@H](CCCCN)C(=O)N[C@@H](CO)C(=O)N[C@@H](Cc1ccccc1)C(=O)N[C@@H](CO)C(=O)N[C@@H](CC(=O)O)C(=O)N[C@H](C(=O)NCC(N)=O)C(C)C [Peptide A07P42] (H-SGYTANQRINLNEKSFSDVG-NH2) | – | – | − (symbol − indicates its absence, following criteria established in Example 2) | –
CC(C)C[C@H](NC(=O)[C@@H](NC(=O)[C@H](CC(=O)O)NC(=O)[C@H](CC(N)=O)NC(=O)CNC(=O)[C@H](C)NC(=O)CNC(=O)CNC(=O)[C@H](CCCCN)NC(=O)[C@H](CC(C)C)NC(=O)[C@@H](NC(=O)[C@H](CC(N)=O)NC(=O)[C@H](CC(N)=O)NC(=O)[C@H](C)N)C(C)C)C(C)C)C(=O)N[C@@H](Cc1ccccc1)C(=O)NCC(=O)NCC(=O)NCC(=O)NCC(=O)N[C@@H](C)C(N)=O [Peptide A07P43] (H-ANNVLKGGAGNDVLFGGGGA-NH2) | – | – | − (symbol − indicates its absence, following criteria established in Example 2) | –
CC[C@H](C)[C@H](NC(=O)[C@H](C)NC(=O)[C@H](C)NC(=O)[C@@H](NC(=O)[C@H](CC(=O)O)NC(=O)[C@H](CC(=O)O)NC(=O)[C@H](CC(C)C)NC(=O)[C@@H](N)CC(C)C)[C@@H](C)CC)C(=O)N[C@@H](CCC(N)=O)C(=O)N[C@@H](Cc1c[nH]cn1)C(=O)N[C@@H](CC(C)C)C(=O)N[C@@H](Cc1ccc(O)cc1)C(=O)NCC(=O)N[C@@H](C)C(=O)N[C@@H](CC(N)=O)C(=O)N1CCC[C@H]1C(=O)N[C@@H](CO)C(=O)N[C@H](C(=O)N[C@@H](CCCNC(=N)N)C(=O)N[C@H](C(N)=O)[C@@H](C)O)[C@@H](C)O [Peptide E07P05] (H-LLDDIAAIQHLYGANPSTRT-NH2) | – | – | − (symbol − indicates its absence, following criteria established in Example 2) | –
